Laboratory results reported in patent US10202361B2, “Pyridazinones as herbicides” (E I DU PONT DE NEMOURS AND COMPANY, priority 2014, dated 2019).

What was measured:
Format in all cases: in vivo
[1] = test system: canarygrass (Phalaris minor); assay: Test C postemergence greenhouse herbicide test
[2] = test system: waterhemp_RES1 (ALS & Triazine resistant common waterhemp, Amaranthus rudis); assay: Test E postemergence greenhouse herbicide test; conditions: scale 0 to 100
Procedure: (§1) At the same time, plants from these crop and weed species and also waterhemp_RES1, (ALS & Triazine resistant common waterhemp, Amaranthus rudis), and waterhemp_RES2, (ALS & HPPD resistant common waterhemp, Amaranthus rudis) were planted in pots containing Redi-Earth® planting medium (Scotts Company, 14111 Scottslawn Road, Marysville, Ohio 43041) comprising spaghnum peat moss, vermiculite, wetting agent and starter nutrients were treated with postemergence applications of test chemicals formulated in the same manner. Plants ranged in height from 2 to 18 cm for postemergence treatments (1- to 4-leaf stage). Treated plants and controls were maintained in a greenhouse for 14 to 21 d, after which time all species were compared to controls and visually evaluated. Plant response ratings, summarized in Table E, are based on a scale of 0 to 100 where 0 is no effect and 100 is complete control. A dash (-) response means no test result.

[3] = test system: waterhemp_RES2 (ALS & HPPD resistant common waterhemp, Amaranthus rudis); assay: Test E postemergence greenhouse herbicide test; conditions: scale 0 to 100
Procedure: as §1

[4] = test system: surinam grass (Brachiaria decumbens); assay: Test E pre-/postemergence greenhouse herbicide test; conditions: Preemergence, scale 0 to 100
[5] = test system: crabgrass, large (large crabgrass Digitaria sanguinalis); assay: as above; conditions: Preemergence, scale 0 to 100
[6] = test system: field bindweed (Convolvulus arvensis); assay: as above; conditions: scale 0 to 100
In short: (§2)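 Pre- and postemergence greenhouse spray; compound in non-phytotoxic solvent + surfactant. Pre: silt loam soil at planting. Post: 1- to 4-leaf plants, 2 to 18 cm, peat-based medium. Visual score 0–100 vs untreated controls at 14 to 21 d.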

[7] = test system: barnyardgrass (Echinochloa crus-galli); assay: as above; conditions: scale 0 to 100
In short: as §2

[8] = test system: arrowleaf sida (Sida rhombifolia); assay: as above; conditions: scale 0 to 100
In short: as §2

[9] = test system: smartweed (ladysthumb smartweed, Polygonum persicaria); assay: as above; conditions: scale 0 to 100
In short: as §2

[10] = test system: dayflower, VA (Virginia dayflower, Commelina virginica); assay: as above; conditions: scale 0 to 100
In short: as §2

[11] = test system: goosegrass (Eleusine indica); assay: as above; conditions: Preemergence, scale 0 to 100
[12] = test system: poinsettia, wild (wild poinsettia, Euphorbia heterophylla); assay: as above; conditions: scale 0 to 100
[13] = test system: nutsedge, yellow (yellow nutsedge, Cyperus esculentus); assay: as above; conditions: Preemergence, scale 0 to 100

Cc1cc(=O)n(-c2ccc(F)cc2)nc1Oc1ccnc(C(F)(F)F)c1 [Compound 14, 2-(4-fluorophenyl)-5-methyl-6-[[2-(trifluoromethyl)-4-pyridinyl]oxy]-3 (2H)-pyridazinone]
Plant response rating ([1]; 31 g ai/ha): 5
Plant response rating ([1]; 62 g ai/ha): 5
Plant response rating ([1]; 125 g ai/ha): 10
Plant response rating ([1]; 250 g ai/ha): 15

COc1cc(=O)n(-c2ccc(F)cc2)nc1Cc1ccnc(C(F)(F)F)c1 [Compound 17, 2-(4-fluorophenyl)-5-methoxy-6-[[2-(trifluoromethyl)-4-pyridinyl]methyl]-3 (2H)-pyridazinone]
Plant response rating: Waterhemp_RES1 ([2]; 16 g ai/ha): 50
Plant response rating: Waterhemp_RES1 ([2]; 31 g ai/ha): 60
Plant response rating: Waterhemp_RES1 ([2]; 62 g ai/ha): 60
Plant response rating: Waterhemp_RES1 ([2]; 125 g ai/ha): 85
Plant response rating: Waterhemp_RES1 ([2]; 250 g ai/ha): 90
Plant response rating: Waterhemp_RES2 ([3]; 16 g ai/ha): 60
Plant response rating: Waterhemp_RES2 ([3]; 31 g ai/ha): 80
Plant response rating: Waterhemp_RES2 ([3]; 62 g ai/ha): 80
Plant response rating: Waterhemp_RES2 ([3]; 125 g ai/ha): 90
Plant response rating: Waterhemp_RES2 ([3]; 250 g ai/ha): 95
Plant response rating: Surinam Grass ([4]; 16 g ai/ha): 0
Plant response rating: Surinam Grass ([4]; 31 g ai/ha): 20
Plant response rating: Surinam Grass ([4]; 62 g ai/ha): 65
Plant response rating: Surinam Grass ([4]; 125 g ai/ha): 75
Plant response rating: Surinam Grass ([4]; 250 g ai/ha): 75
Plant response rating: Crabgrass, Large ([5]; 16 g ai/ha): 35
Plant response rating: Crabgrass, Large ([5]; 31 g ai/ha): 100
Plant response rating: Crabgrass, Large ([5]; 62 g ai/ha): 100
Plant response rating: Crabgrass, Large ([5]; 125 g ai/ha): 100
Plant response rating: Crabgrass, Large ([5]; 250 g ai/ha): 100
Plant response rating: Field Bindweed ([6]; Postemergence, 16 g ai/ha): 40
Plant response rating: Field Bindweed ([6]; Postemergence, 31 g ai/ha): 40
Plant response rating: Field Bindweed ([6]; Postemergence, 62 g ai/ha): 50
Plant response rating: Field Bindweed ([6]; Postemergence, 125 g ai/ha): 60
Plant response rating: Field Bindweed ([6]; Postemergence, 250 g ai/ha): 75
Plant response rating: Field Bindweed ([6]; Preemergence, 16 g ai/ha): 0
Plant response rating: Field Bindweed ([6]; Preemergence, 31 g ai/ha): 0
Plant response rating: Field Bindweed ([6]; Preemergence, 62 g ai/ha): 0
Plant response rating: Field Bindweed ([6]; Preemergence, 125 g ai/ha): 5
Plant response rating: Field Bindweed ([6]; Preemergence, 250 g ai/ha): 98
Plant response rating: Barnyardgrass ([7]; Postemergence, 16 g ai/ha): 0
Plant response rating: Barnyardgrass ([7]; Postemergence, 31 g ai/ha): 10
Plant response rating: Barnyardgrass ([7]; Postemergence, 62 g ai/ha): 20
Plant response rating: Barnyardgrass ([7]; Postemergence, 125 g ai/ha): 20
Plant response rating: Barnyardgrass ([7]; Postemergence, 250 g ai/ha): 65
Plant response rating: Barnyardgrass ([7]; Preemergence, 16 g ai/ha): 0
Plant response rating: Barnyardgrass ([7]; Preemergence, 31 g ai/ha): 20
Plant response rating: Barnyardgrass ([7]; Preemergence, 62 g ai/ha): 35
Plant response rating: Barnyardgrass ([7]; Preemergence, 125 g ai/ha): 80
Plant response rating: Barnyardgrass ([7]; Preemergence, 250 g ai/ha): 80
Plant response rating: Arrowleaf Sida ([8]; Postemergence, 16 g ai/ha): 30
Plant response rating: Arrowleaf Sida ([8]; Postemergence, 31 g ai/ha): 40
Plant response rating: Arrowleaf Sida ([8]; Postemergence, 62 g ai/ha): 50
Plant response rating: Arrowleaf Sida ([8]; Postemergence, 125 g ai/ha): 50
Plant response rating: Arrowleaf Sida ([8]; Postemergence, 250 g ai/ha): 70
Plant response rating: Arrowleaf Sida ([8]; Preemergence, 16 g ai/ha): 0
Plant response rating: Arrowleaf Sida ([8]; Preemergence, 31 g ai/ha): 0
Plant response rating: Arrowleaf Sida ([8]; Preemergence, 62 g ai/ha): 0
Plant response rating: Arrowleaf Sida ([8]; Preemergence, 125 g ai/ha): 0
Plant response rating: Arrowleaf Sida ([8]; Preemergence, 250 g ai/ha): 0
Plant response rating: Smartweed ([9]; Postemergence, 16 g ai/ha): 10
Plant response rating: Smartweed ([9]; Postemergence, 31 g ai/ha): 15
Plant response rating: Smartweed ([9]; Postemergence, 62 g ai/ha): 30
Plant response rating: Smartweed ([9]; Postemergence, 125 g ai/ha): 40
Plant response rating: Smartweed ([9]; Postemergence, 250 g ai/ha): 60
Plant response rating: Smartweed ([9]; Preemergence, 16 g ai/ha): 0
Plant response rating: Smartweed ([9]; Preemergence, 31 g ai/ha): 0
Plant response rating: Smartweed ([9]; Preemergence, 62 g ai/ha): 0
Plant response rating: Smartweed ([9]; Preemergence, 125 g ai/ha): 20
Plant response rating: Smartweed ([9]; Preemergence, 250 g ai/ha): 75
Plant response rating: Dayflower, VA ([10]; Postemergence, 16 g ai/ha): 10
Plant response rating: Dayflower, VA ([10]; Postemergence, 31 g ai/ha): 10
Plant response rating: Dayflower, VA ([10]; Postemergence, 62 g ai/ha): 15
Plant response rating: Dayflower, VA ([10]; Postemergence, 125 g ai/ha): 30
Plant response rating: Dayflower, VA ([10]; Postemergence, 250 g ai/ha): 40
Plant response rating: Dayflower, VA ([10]; Preemergence, 16 g ai/ha): 0
Plant response rating: Dayflower, VA ([10]; Preemergence, 31 g ai/ha): 10
Plant response rating: Dayflower, VA ([10]; Preemergence, 62 g ai/ha): 20
Plant response rating: Dayflower, VA ([10]; Preemergence, 250 g ai/ha): 80
Plant response rating: Goosegrass ([11]; 16 g ai/ha): 0
Plant response rating: Goosegrass ([11]; 31 g ai/ha): 20
Plant response rating: Goosegrass ([11]; 62 g ai/ha): 60
Plant response rating: Goosegrass ([11]; 125 g ai/ha): 95
Plant response rating: Goosegrass ([11]; 250 g ai/ha): 98
Plant response rating: Poinsettia, Wild ([12]; Postemergence, 16 g ai/ha): 20
Plant response rating: Poinsettia, Wild ([12]; Postemergence, 31 g ai/ha): 30
Plant response rating: Poinsettia, Wild ([12]; Postemergence, 62 g ai/ha): 40
Plant response rating: Poinsettia, Wild ([12]; Postemergence, 125 g ai/ha): 40
Plant response rating: Poinsettia, Wild ([12]; Postemergence, 250 g ai/ha): 50
Plant response rating: Poinsettia, Wild ([12]; Preemergence, 16 g ai/ha): 20
Plant response rating: Poinsettia, Wild ([12]; Preemergence, 31 g ai/ha): 20
Plant response rating: Poinsettia, Wild ([12]; Preemergence, 62 g ai/ha): 30
Plant response rating: Poinsettia, Wild ([12]; Preemergence, 125 g ai/ha): 40
Plant response rating: Poinsettia, Wild ([12]; Preemergence, 250 g ai/ha): 100
Plant response rating: Nutsedge, Yellow ([13]; 16 g ai/ha): 0
Plant response rating: Nutsedge, Yellow ([13]; 31 g ai/ha): 0
Plant response rating: Nutsedge, Yellow ([13]; 62 g ai/ha): 35
Plant response rating: Nutsedge, Yellow ([13]; 125 g ai/ha): 50
Plant response rating: Nutsedge, Yellow ([13]; 250 g ai/ha): 70
